Experimental data published in PubChem BioAssay AID2060499 (Molecular Pharmacology Branch, DTP, NCI, 2025).
pIC50: −log10 of the molar value.

Test system: 777334-354-R2-J4-PDC tumor spheroids with HUVEC/MSC, viability
Assay: Anticancer human tumor 777334-354-R2-J4-PDC patient-derived pancreatic adenocarcinoma cell line growth inhibition [GQUAD]
Details: for pIC50: curve of first compound; for viability, T/C: stronger effect = lower value
Outline: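 Multi-cell-type spheroids of tumor cells with HUVEC and mesenchymal stem cells, treated with drug combinations. Concentrations descend in half-log steps from near clinical Cmax, or from 10 microM where Cmax is unknown; viability read-out.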

[1] = second compound 0.0316 µM, first compound 0.0316 µM
[2] = second compound 0.0316 µM, first compound 0.1 µM
[3] = second compound 0.0316 µM, first compound 0.316 µM
[4] = second compound 0.0316 µM, first compound 1 µM
[5] = second compound 0.0316 µM, first compound 3.16 µM
[6] = second compound 0.0316 µM, first compound 10 µM
[7] = second compound 0.1 µM, first compound 0.0316 µM
[8] = second compound 0.1 µM, first compound 0.1 µM
[9] = second compound 0.1 µM, first compound 0.316 µM
[10] = second compound 0.1 µM, first compound 1 µM
[11] = second compound 0.1 µM, first compound 3.16 µM
[12] = second compound 0.1 µM, first compound 10 µM
[13] = second compound 0.316 µM, first compound 0.0316 µM
[14] = second compound 0.316 µM, first compound 0.1 µM
[15] = second compound 0.316 µM, first compound 0.316 µM
[16] = second compound 0.316 µM, first compound 1 µM
[17] = second compound 0.316 µM, first compound 3.16 µM
[18] = second compound 0.316 µM, first compound 10 µM
[19] = second compound 1 µM, first compound 0.0316 µM
[20] = second compound 1 µM, first compound 0.1 µM
[21] = second compound 1 µM, first compound 0.316 µM
[22] = second compound 1 µM, first compound 1 µM
[23] = second compound 1 µM, first compound 3.16 µM
[24] = second compound 1 µM, first compound 10 µM
[25] = second compound 3.16 µM, first compound 0.0316 µM
[26] = second compound 3.16 µM, first compound 0.1 µM
[27] = second compound 3.16 µM, first compound 0.316 µM
[28] = second compound 3.16 µM, first compound 1 µM
[29] = second compound 3.16 µM, first compound 3.16 µM
[30] = second compound 3.16 µM, first compound 10 µM
[31] = second compound 10 µM, first compound 0.0316 µM
[32] = second compound 10 µM, first compound 0.1 µM
[33] = second compound 10 µM, first compound 0.316 µM
[34] = second compound 10 µM, first compound 1 µM
[35] = second compound 10 µM, first compound 3.16 µM
[36] = second compound 10 µM, first compound 10 µM
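Also: spheroids exposed to compounds for 7 days before readout.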

CC(=O)O[C@H]1C(=O)[C@@]2(C)[C@H]([C@H](OC(=O)c3ccccc3)[C@]3(O)C[C@H](OC(=O)[C@H](O)[C@@H](NC(=O)c4ccccc4)c4ccccc4)C(C)=C1C3(C)C)[C@]1(OC(C)=O)CO[C@@H]1C[C@@H]2O + CN(C)c1ccc(Nc2c3ccc(NC(=O)CCN4CCCC4)cc3nc3cc(NC(=O)CCN4CCCC4)ccc23)cc1
pIC50 (second compound 0.0316 µM): 6.65 | pIC50 (second compound 0.1 µM): 6.66 | pIC50 (second compound 0.316 µM): 6.72 | pIC50 (second compound 1 µM): 7.05 | pIC50 (second compound 3.16 µM): 7.03 | pIC50 (second compound 10 µM): 6.68 | viability, T/C [1]: 76.8% | viability, T/C [2]: 57.2% | viability, T/C [3]: 48.6% | viability, T/C [4]: 39.2% | viability, T/C [5]: 43.2% | viability, T/C [6]: 46.2% | viability, T/C [7]: 72.7% | viability, T/C [8]: 58.1% | viability, T/C [9]: 46.5% | viability, T/C [10]: 38.9% | viability, T/C [11]: 49.7% | viability, T/C [12]: 48.5% | viability, T/C [13]: 73.9% | viability, T/C [14]: 54.4% | viability, T/C [15]: 47% | viability, T/C [16]: 41.2% | viability, T/C [17]: 49.6% | viability, T/C [18]: 42% | viability, T/C [19]: 59.2% | viability, T/C [20]: 50.6% | viability, T/C [21]: 40.5% | viability, T/C [22]: 39.3% | viability, T/C [23]: 39% | viability, T/C [24]: 35.1% | viability, T/C [25]: 65.8% | viability, T/C [26]: 51% | viability, T/C [27]: 38.4% | viability, T/C [28]: 45.6% | viability, T/C [29]: 44.2% | viability, T/C [30]: 39.4% | viability, T/C [31]: 70% | viability, T/C [32]: 51.8% | viability, T/C [33]: 51.2% | viability, T/C [34]: 46.5% | viability, T/C [35]: 41.8% | viability, T/C [36]: 46.3%

CC[C@@]1(O)C(=O)OCc2c1cc1n(c2=O)Cc2cc3c(CN(C)C)c(O)ccc3nc2-1 + CN(C)c1ccc(Nc2c3ccc(NC(=O)CCN4CCCC4)cc3nc3cc(NC(=O)CCN4CCCC4)ccc23)cc1
pIC50 (second compound 0.0316 µM): 6.89 | pIC50 (second compound 0.1 µM): 6.80 | pIC50 (second compound 0.316 µM): 6.82 | pIC50 (second compound 1 µM): 6.79 | pIC50 (second compound 3.16 µM): 6.97 | pIC50 (second compound 10 µM): 6.85 | viability, T/C (second compound 0.0316 µM, first compound 0.000999 µM): 105% | viability, T/C (second compound 0.0316 µM, first compound 0.00316 µM): 110% | viability, T/C (second compound 0.0316 µM, first compound 0.00999 µM): 109% | viability, T/C [1]: 84.5% | viability, T/C (second compound 0.0316 µM, first compound 0.0999 µM): 56% | viability, T/C [3]: 34.7% | viability, T/C (second compound 0.1 µM, first compound 0.000999 µM): 106% | viability, T/C (second compound 0.1 µM, first compound 0.00316 µM): 89.2% | viability, T/C (second compound 0.1 µM, first compound 0.00999 µM): 103% | viability, T/C [7]: 88.8% | viability, T/C (second compound 0.1 µM, first compound 0.0999 µM): 57.7% | viability, T/C [9]: 38.5% | viability, T/C (second compound 0.316 µM, first compound 0.000999 µM): 77.1% | viability, T/C (second compound 0.316 µM, first compound 0.00316 µM): 90.2% | viability, T/C (second compound 0.316 µM, first compound 0.00999 µM): 95.1% | viability, T/C [13]: 79.1% | viability, T/C (second compound 0.316 µM, first compound 0.0999 µM): 60.4% | viability, T/C [15]: 33.2% | viability, T/C (second compound 1 µM, first compound 0.000999 µM): 98.8% | viability, T/C (second compound 1 µM, first compound 0.00316 µM): 95.9% | viability, T/C (second compound 1 µM, first compound 0.00999 µM): 100% | viability, T/C [19]: 88.1% | viability, T/C (second compound 1 µM, first compound 0.0999 µM): 57.8% | viability, T/C [21]: 39.6% | viability, T/C (second compound 3.16 µM, first compound 0.000999 µM): 83.7% | viability, T/C (second compound 3.16 µM, first compound 0.00316 µM): 94.2% | viability, T/C (second compound 3.16 µM, first compound 0.00999 µM): 98.8% | viability, T/C [25]: 83.6% | viability, T/C (second compound 3.16 µM, first compound 0.0999 µM): 51.4% | viability, T/C [27]: 31.9% | viability, T/C (second compound 10 µM, first compound 0.000999 µM): 79.3% | viability, T/C (second compound 10 µM, first compound 0.00316 µM): 89.9% | viability, T/C (second compound 10 µM, first compound 0.00999 µM): 67.4% | viability, T/C [31]: 73.4% | viability, T/C (second compound 10 µM, first compound 0.0999 µM): 55.3% | viability, T/C [33]: 35.1%

COc1cc(C2c3cc4c(cc3C(OC3OC5COC(C)OC5C(O)C3O)C3COC(=O)C23)OCO4)cc(OC)c1O (stereo unspecified) + CN(C)c1ccc(Nc2c3ccc(NC(=O)CCN4CCCC4)cc3nc3cc(NC(=O)CCN4CCCC4)ccc23)cc1
pIC50 (second compound 0.0316 µM): 5.31 | pIC50 (second compound 0.1 µM): 5.36 | pIC50 (second compound 0.316 µM): 5.39 | pIC50 (second compound 1 µM): 5.53 | pIC50 (second compound 3.16 µM): 5.33 | pIC50 (second compound 10 µM): 5.44 | viability, T/C [1]: 98.6% | viability, T/C [2]: 87.8% | viability, T/C [3]: 88.9% | viability, T/C [4]: 70.4% | viability, T/C [5]: 57.8% | viability, T/C [6]: 38.5% | viability, T/C [7]: 99.6% | viability, T/C [8]: 95.2% | viability, T/C [9]: 87.5% | viability, T/C [10]: 79% | viability, T/C [11]: 54% | viability, T/C [12]: 36% | viability, T/C [13]: 93.5% | viability, T/C [14]: 78.9% | viability, T/C [15]: 85.5% | viability, T/C [16]: 70.3% | viability, T/C [17]: 53.6% | viability, T/C [18]: 34.1% | viability, T/C [19]: 90.5% | viability, T/C [20]: 82% | viability, T/C [21]: 87.4% | viability, T/C [22]: 74.3% | viability, T/C [23]: 48.5% | viability, T/C [24]: 37.4% | viability, T/C [25]: 88% | viability, T/C [26]: 78.5% | viability, T/C [27]: 77.8% | viability, T/C [28]: 66.3% | viability, T/C [29]: 60.4% | viability, T/C [30]: 36.6% | viability, T/C [31]: 79% | viability, T/C [32]: 84.8% | viability, T/C [33]: 75.1% | viability, T/C [34]: 61% | viability, T/C [35]: 55% | viability, T/C [36]: 33.6%
